According to patent US4684664A, “Derivatives of β-(4-isocyano-1,2,3,4-diepoxycyclopentyl) acrylic acid” (Kureha Kagaku Kogyo Kabushiki Kaisha, priority 1984, dated 1987):
In brackets after ≈: the same amount, converted by molar mass.

Tests used:
Assay type in all cases: cell-based
[1] = test system: Proteus mirabilis IFO 3849; test: Antibacterial activity, agar-dilution MIC, organism No. 19; conditions: Proteus mirabilis, IFO3849; Organism No. 19, bouillon-agar; read-out: Minimum Inhibitory Concentration
From the text: (§1) Agar-dilution method was used for determination of the antibacterial activity and antifungal activity while using bouillon-agar culture medium, and the minimum inhibitory concentration of the specimen was expressed by μg/ml of the culture medium.

[2] = test system: Staphylococcus aureus MS 353; test: Antibacterial activity, agar-dilution MIC, organism No. 3; conditions: Staphylococcus aureus, MS353; Organism No. 3, bouillon-agar; read-out: Minimum Inhibitory Concentration
From the text: as §1

[3] = test system: Pseudomonas aeruginosa PAO 1; test: Antibacterial activity, agar-dilution MIC, organism No. 17; conditions: Pseudomonas aeruginosa, PAO1; Organism No. 17, bouillon-agar; read-out: Minimum Inhibitory Concentration
From the text: as §1

[4] = test system: Pseudomonas aeruginosa IFO 3445; test: Antibacterial activity, agar-dilution MIC, organism No. 15; conditions: Pseudomonas aeruginosa, IFO3445; Organism No. 15, bouillon-agar; read-out: Minimum Inhibitory Concentration
From the text: as §1

[5] = test system: Staphylococcus aureus FDA 209PJc-1; test: Antibacterial activity, agar-dilution MIC, organism No. 1; conditions: Staphylococcus aureus, FDA209PJC1; Organism No. 1, bouillon-agar; read-out: Minimum Inhibitory Concentration
From the text: as §1

[6] = test system: Aspergillus niger IFO 6342; test: Antifungal activity, agar-dilution MIC, organism No. 30; conditions: Aspergillus niger, IFO6342; Organism No. 30, bouillon-agar; read-out: Minimum Inhibitory Concentration
From the text: as §1

[7] = test system: Pseudomonas aeruginosa NCTC 10490; test: Antibacterial activity, agar-dilution MIC, organism No. 16; conditions: Pseudomonas aeruginosa, NCTC10490; Organism No. 16, bouillon-agar; read-out: Minimum Inhibitory Concentration
From the text: as §1

[8] = test system: Escherichia coli NIHJ-JC-2; test: Antibacterial activity, agar-dilution MIC, organism No. 5; conditions: Escherichia coli, NIHJJC2; Organism No. 5, bouillon-agar; read-out: Minimum Inhibitory Concentration
From the text: as §1

Proteus vulgaris OX-19 = test: Antibacterial activity, agar-dilution MIC, organism No. 20; conditions: Proteus vulgaris, OX19; Organism No. 20, bouillon-agar; read-out: Minimum Inhibitory Concentration
From the text: as §1

[9] = test system: Streptococcus pyogenes Cook; test: Antibacterial activity, agar-dilution MIC, organism No. 4; conditions: Streptococcus pyogenes; Organism No. 4, bouillon-agar; read-out: Minimum Inhibitory Concentration
From the text: as §1

[10] = test system: Streptococcus faecium IFO 3826; test: Antibacterial activity, agar-dilution MIC, organism No. 27; conditions: Enterococcus faecium, IFO3826; Organism No. 27, bouillon-agar; read-out: Minimum Inhibitory Concentration
From the text: as §1

[11] = test system: Mycoplasma pneumoniae IID817; test: Antimycoplasmal activity, MIC by phenol red colour change, organism No. 28; conditions: Mycoplasma, IID817; Organism No. 28, PPLO broth + 1% glucose, 37° C.; read-out: Minimum Inhibitory Concentration (MIC)
Description: Mycoplasma pneumoniae IID817 was used as the test microorganism in a culture medium prepared by adding 1% of glucose to "PPLO broth (manufactured by Difco Co.) liquid culture medium" at 37° C. with phenol red as an indicator, thereby culturing the test microorganism.

[12] = test system: Staphylococcus aureus Terajima; test: Antibacterial activity, agar-dilution MIC, organism No. 2; conditions: Staphylococcus aureus; Organism No. 2, bouillon-agar; read-out: Minimum Inhibitory Concentration
From the text: as §1

Enterobacter cloacae 963 = test: Antibacterial activity, agar-dilution MIC, organism No. 24; conditions: Enterobacter cloacae, 963; Organism No. 24, bouillon-agar; read-out: Minimum Inhibitory Concentration
From the text: as §1

[13] = test system: Salmonella shottmuelleri 8006; test: Antibacterial activity, agar-dilution MIC, organism No. 11; conditions: Salmonella, 8006; Organism No. 11, bouillon-agar; read-out: Minimum Inhibitory Concentration
From the text: as §1

[14] = test system: Streptococcus pyogenes IFO 3340; test: Antibacterial activity, agar-dilution MIC, organism No. 26; conditions: Streptococcus pyogenes, IFO3340; Organism No. 26, bouillon-agar; read-out: Minimum Inhibitory Concentration
From the text: as §1

Salmonella typhi 901 = test: Antibacterial activity, agar-dilution MIC, organism No. 9; conditions: Salmonella enterica, TYPHI, read-out: Minimum Inhibitory Concentration
From the text: as §1

[15] = test system: Bacillus subtilis ATCC 6633; test: Antibacterial activity, agar-dilution MIC, organism No. 14; conditions: Bacillus subtilis, ATCC6633; Organism No. 14, bouillon-agar; read-out: Minimum Inhibitory Concentration
From the text: as §1

[16] = test system: Escherichia coli K12 C600 IAM 1264; test: Antibacterial activity, agar-dilution MIC, organism No. 6; conditions: Escherichia coli, IAM1264; Organism No. 6, bouillon-agar; read-out: Minimum Inhibitory Concentration
From the text: as §1

[17] = test system: Micrococcus luteus ATCC 9341; test: Antibacterial activity, agar-dilution MIC, organism No. 25; conditions: Micrococcus luteus, ATCC9341; Organism No. 25, bouillon-agar; read-out: Minimum Inhibitory Concentration
From the text: as §1

[18] = test system: Enterobacter aerogenes ATCC 13048; test: Antibacterial activity, agar-dilution MIC, organism No. 23; conditions: Klebsiella aerogenes, ATCC13048; Organism No. 23, bouillon-agar; read-out: Minimum Inhibitory Concentration
From the text: as §1

[19] = test system: Salmonella enteritidis G 14; test: Antibacterial activity, agar-dilution MIC, organism No. 12; conditions: Salmonella enterica, ENTERITIDIS; Organism No. 12, bouillon-agar; read-out: Minimum Inhibitory Concentration
From the text: as §1

[20] = test system: Candida albicans IAM 4905; test: Antifungal activity, agar-dilution MIC, organism No. 29; conditions: Candida albicans, IAM4905; Organism No. 29, bouillon-agar; read-out: Minimum Inhibitory Concentration
From the text: as §1

[21] = test system: Proteus rettgeri IFO 3850; test: Antibacterial activity, agar-dilution MIC, organism No. 22; conditions: Providencia rettgeri, IFO3850; Organism No. 22, bouillon-agar; read-out: Minimum Inhibitory Concentration
From the text: as §1

[22] = test system: Proteus morganii IFO 3848; test: Antibacterial activity, agar-dilution MIC, organism No. 18; conditions: Morganella morganii, IFO3848; Organism No. 18, bouillon-agar; read-out: Minimum Inhibitory Concentration
From the text: as §1

[23] = test system: Salmonella paratyphi-A 1015; test: Antibacterial activity, agar-dilution MIC, organism No. 10; conditions: Salmonella enterica, PARATYPHI, read-out: Minimum Inhibitory Concentration
From the text: as §1

Proteus vulgaris HX-19 = test: Antibacterial activity, agar-dilution MIC, organism No. 21; conditions: Proteus vulgaris, HX19; Organism No. 21, bouillon-agar; read-out: Minimum Inhibitory Concentration
From the text: as §1

[24] = test system: Klebsiella pneumoniae PCI-602; test: Antibacterial activity, agar-dilution MIC, organism No. 7; conditions: Klebsiella pneumoniae, PCI602; Organism No. 7, bouillon-agar; read-out: Minimum Inhibitory Concentration
From the text: as §1

[25] = test system: Salmonella typhimurium IID 971; test: Antibacterial activity, agar-dilution MIC, organism No. 8; conditions: Salmonella enterica; Organism No. 8, bouillon-agar; read-out: Minimum Inhibitory Concentration
From the text: as §1

SMILES	MIC [1]	MIC [2]	MIC [3]	MIC [4]	MIC [5]	MIC [6]	MIC [7]	MIC [8]	MIC (Proteus vulgaris OX-19)	MIC [9]	MIC [10]	MIC [11]	MIC [12]	MIC (Enterobacter cloacae 963)	MIC [13]	MIC [14]	MIC (Salmonella typhi 901)	MIC [15]	MIC [16]	MIC [17]	further results
[C-]#[N+]C12CC3(/C=C/C(=O)NC4C(=O)N5C4SC(C)(C)C5C(=O)OCC(=O)c4ccc(Br)cc4)OC3C1O2 (stereo not shown) [Compound No. 33]	> 200 µg/mL	1.56 µg/mL (≈ 2.65 µM)	> 200 µg/mL	> 200 µg/mL	1.56 µg/mL (≈ 2.65 µM)	3.13 µg/mL (≈ 5.32 µM)	> 200 µg/mL	25 µg/mL (≈ 42.5 µM)	100 µg/mL (≈ 170 µM)	0.78 µg/mL (≈ 1.33 µM)	0.8 µg/mL (≈ 1.36 µM)	< 0.2 µg/mL	0.78 µg/mL (≈ 1.33 µM)	25 µg/mL (≈ 42.5 µM)	0.38 µg/mL (≈ 0.646 µM)	0.8 µg/mL (≈ 1.36 µM)	3.13 µg/mL (≈ 5.32 µM)	0.78 µg/mL (≈ 1.33 µM)	25 µg/mL (≈ 42.5 µM)	3.13 µg/mL (≈ 5.32 µM)	MIC [18]: > 100 µg/mL; MIC [19]: 1.56 µg/mL (≈ 2.65 µM); MIC [20]: 1.56 µg/mL (≈ 2.65 µM); MIC [21]: > 100 µg/mL; MIC [22]: > 200 µg/mL; MIC [23]: 0.38 µg/mL (≈ 0.646 µM); MIC (Proteus vulgaris HX-19): 1.56 µg/mL (≈ 2.65 µM); MIC [24]: 25 µg/mL (≈ 42.5 µM); MIC [25]: 12.5 µg/mL (≈ 21.2 µM)
[C-]#[N+]C12CC3(/C=C/C(=O)N[C@@H](C(=O)OCc4ccccc4)C(C)C)OC3C1O2 (stereo partly shown) [compound 30]	> 200 µg/mL	> 200 µg/mL	> 200 µg/mL	> 200 µg/mL	> 200 µg/mL	> 100 µg/mL	> 200 µg/mL	> 200 µg/mL	> 200 µg/mL	> 200 µg/mL	> 200 µg/mL	> 100 µg/mL	> 200 µg/mL	> 200 µg/mL	> 200 µg/mL	> 200 µg/mL	> 200 µg/mL	> 200 µg/mL	> 200 µg/mL	1.56 µg/mL (≈ 4.08 µM)	MIC [18]: > 200 µg/mL; MIC [19]: > 200 µg/mL; MIC [20]: > 100 µg/mL; MIC [21]: > 200 µg/mL; MIC [22]: > 200 µg/mL; MIC [23]: > 200 µg/mL; MIC (Proteus vulgaris HX-19): > 200 µg/mL; MIC [24]: > 200 µg/mL; MIC [25]: > 200 µg/mL
[C-]#[N+]C12CC3(/C=C/C(=O)N[C@@H](Cc4ccccc4)C(=O)OCc4ccccc4)OC3C1O2 (stereo partly shown) [compound 31]	> 200 µg/mL	> 200 µg/mL	> 200 µg/mL	> 200 µg/mL	> 200 µg/mL	> 100 µg/mL	> 200 µg/mL	> 200 µg/mL	> 200 µg/mL	> 200 µg/mL	> 200 µg/mL	> 100 µg/mL	> 200 µg/mL	> 200 µg/mL	> 200 µg/mL	> 200 µg/mL	> 200 µg/mL	> 200 µg/mL	> 200 µg/mL	6.25 µg/mL (≈ 14.5 µM)	MIC [18]: > 200 µg/mL; MIC [19]: > 200 µg/mL; MIC [20]: > 100 µg/mL; MIC [21]: > 200 µg/mL; MIC [22]: > 200 µg/mL; MIC [23]: > 200 µg/mL; MIC (Proteus vulgaris HX-19): > 200 µg/mL; MIC [24]: > 200 µg/mL; MIC [25]: > 200 µg/mL
[C-]#[N+]C12CC3(/C=C/C(=O)Nc4ccc(C)cc4)OC3C1O2 (stereo not shown) [compound 37]	200 µg/mL (≈ 708 µM)	0.39 µg/mL (≈ 1.38 µM)	> 200 µg/mL	> 200 µg/mL	0.39 µg/mL (≈ 1.38 µM)	1.56 µg/mL (≈ 5.53 µM)	> 200 µg/mL	25 µg/mL (≈ 88.6 µM)	0.2 µg/mL (≈ 0.708 µM)	12.5 µg/mL (≈ 44.3 µM)	25 µg/mL (≈ 88.6 µM)	0.2 µg/mL	1.56 µg/mL (≈ 5.53 µM)	50 µg/mL (≈ 177 µM)	0.2 µg/mL (≈ 0.708 µM)	1.56 µg/mL (≈ 5.53 µM)	1.56 µg/mL (≈ 5.53 µM)	6.25 µg/mL (≈ 22.1 µM)	25 µg/mL (≈ 88.6 µM)	< 0.05 µg/mL	MIC [18]: 100 µg/mL (≈ 354 µM); MIC [19]: 1.56 µg/mL (≈ 5.53 µM); MIC [20]: 0.39 µg/mL (≈ 1.38 µM); MIC [21]: 3.13 µg/mL (≈ 11.1 µM); MIC [22]: 12.5 µg/mL (≈ 44.3 µM); MIC [23]: 0.2 µg/mL (≈ 0.708 µM); MIC (Proteus vulgaris HX-19): < 0.05 µg/mL; MIC [24]: 0.1 µg/mL (≈ 0.354 µM); MIC [25]: 6.25 µg/mL (≈ 22.1 µM)
[C-]#[N+]C12CC3(/C=C/C(=O)Nc4cccc(C)c4)OC3C1O2 (stereo not shown) [compound 38]	> 200 µg/mL	< 0.05 µg/mL	> 200 µg/mL	> 200 µg/mL	< 0.05 µg/mL	1.56 µg/mL (≈ 5.53 µM)	> 200 µg/mL	12.5 µg/mL (≈ 44.3 µM)	0.05 µg/mL (≈ 0.177 µM)	6.25 µg/mL (≈ 22.1 µM)	12.5 µg/mL (≈ 44.3 µM)	< 0.2 µg/mL	0.1 µg/mL (≈ 0.354 µM)	> 200 µg/mL	< 0.05 µg/mL	0.39 µg/mL (≈ 1.38 µM)	1.56 µg/mL (≈ 5.53 µM)	3.13 µg/mL (≈ 11.1 µM)	12.5 µg/mL (≈ 44.3 µM)	< 0.05 µg/mL	MIC [18]: > 200 µg/mL; MIC [19]: 1.56 µg/mL (≈ 5.53 µM); MIC [20]: 0.78 µg/mL (≈ 2.76 µM); MIC [21]: 3.13 µg/mL (≈ 11.1 µM); MIC [22]: 12.5 µg/mL (≈ 44.3 µM); MIC [23]: < 0.05 µg/mL; MIC (Proteus vulgaris HX-19): 0.05 µg/mL (≈ 0.177 µM); MIC [24]: < 0.05 µg/mL; MIC [25]: 6.25 µg/mL (≈ 22.1 µM)
